# Test results: patent US20060111287A1, “Acetylated protein” (priority 2002, published 2006)
# “Also recorded” adds a separate entry of the source. Like-named read-outs stand apart in the source and are kept apart here.
# Key:
# [1] = system: 3T3 cells; test: HMGB1 acetylation pattern by 2D gel electrophoresis and anti-HMGB1 blot after deacetylase inhibitors; assay type: cell-based, mouse; details: for hyperacetylation of HMGB1: cell lines with low complexity of HMGB1 acetylation (3T3 mouse fibroblasts, HeLa cells, HEK cells)
# Description: (C) Most cell lines contain 2 isoforms of HMGB1, and the protein can be hyperacetylated with TSA treatment. 3T3 cells were incubated for 6 hours in DMEM, or DMEM supplemented with 10 ng/ml TSA, then collected and lysed.
# About 50 μg of purified HMGB1 or about 250 μg of total cellular protein were added to 350 μl of rehydration buffer (RB), containing 8 M urea, 2% CHAPS, 20 mM dithioerythritol (DTE), 0.8% IPG buffer (carrier ampholytes, pH 3-10 non-linear or pH 4-7 linear). Samples were applied on 18 cm polyacrylamide gel strips (pH range: 3-10 NL, or pH 4-7 L). Isoelectrophocusing (IEF) was performed in IPGphor (Pharmacia Biotech). IEF was stopped at 75000-90000 VoltHours. Second dimension runs were performed using a Protean II apparatus (Bio-Rad). After IEF, strips were soaked first in equilibration buffer (EB: 6 M urea, 3% SDS, 375 mM Tris pH 8.6, 30% glycerol, 2% DTE), then in EB containing 3% iodoacetamide (LAA) and traces of bromophenol blue (BBP). Strips were then applied onto 10%-12% polyacrylamide gels. Gels were run at 90 V for about 16 hours, and were then either silver stained or transferred onto nitrocellulose membranes (ECL, Amersham) in 25 mM Tris pH 7.5, 0.192 M glycine, 20% methanol.
# [2] = system: U937.12 cells; test: HMGB1 relocation from nucleus to vesicles in LPS-challenged U937.12 cells (immunofluorescence); assay type: cell-based
# Description: Fibroblasts and HeLa cells were cultured in Dulbecco's modified Eagle's medium (DMEM) supplemented with 10% fetal bovine serum (FBS, from Gibco), 100 IU/ml of penicillin and 100 μg/ml streptomycin, in 5% CO2 humidified atmosphere. HeLa cells and 3134 mouse fibroblasts were transfected by calcium phosphate co-precipitation. To express fluorescent proteins, 3×10^5 cells were plated in 6 cm dishes and were transiently transfected with 8 μg of the appropriate plasmid. Cells were observed 36 hours after transfection. […] About 24 hours after transfection, 3134 fibroblasts were treated for 3 hours with 10 ng/ml trichostatin A (TSA, Sigma) before fixing and imaging. Subclone 12[−] of U937 promoyelocitic cells, kindly provided by M. Alfano and G. Poli (HSR, Milano), was grown in RPMI medium (Gibco) supplemented with 10% FCS, L-glutamine, 100 U/ml penicillin 100 μg/ml streptomycin, exposed for 3 days to 0.1 μM vitamin D3 (Roche) to promote CD14 expression, and stimulated with 100 ng/ml LPS (Sigma catalogue #L4391) or with 10 ng/ml TSA for 3 hours. For the experiments with kinase inhibitors, cells were exposed to 1 μM U0126, 10 μM SB203580 or 30 μM SP600125 (all from Calbiochem) at the same time as LPS, and lasting for 3 hours. Primary human monocytes, purified from peripheral blood (a kind gift from M. Iannacone, HSR), were maintained in RPMI medium supplemented as described above, and were activated with 100 ng/ml LPS.
# Cell cultured in LabTek II chambers (Nalgene) were directly fixed in 3.7% paraformaldehyde (PFA) in PHEM buffer (36.8 g/l PIPES, 13 g/l HEPES, 7.6 g/l EGTA, 1.99 g/l MgSO4, buffered to pH 7.0 with KOH) for 10 minutes at room temperature. After fixation, cells were washed with PBS and incubated for 3 minutes at 4° C. with HEPES-based permeabilization buffer containing 300 mM sucrose and 0.2% Triton X-100. Fifteen minutes of incubation in blocking solution (BlS, 0.2% BSA in PBS) followed. Primary antibodies were then diluted in BIS to the suitable final concentration and incubation was prolonged for 1 hour at room temperature. After 3 rinses with BlS, cells were incubated with secondary antibodies in BIS for one hour, washed three times with BlS, and then incubated with PBS containing 0.5 μg/ml Hoechst 33342. The polyclonal rabbit anti-HMGB1 was purchased from BD PharMingen (Torrey Pines, Calif.), and used at 1:1600 dilution. Goat polyclonal antibodies against rabbit IgG (H+L) conjugated to Alexa Fluor 594 (working dilution 1:1000) were purchased from Molecular Probes (Eugene, Oreg., USA).
# The secretion of TNF-α, IL-1, IL-8, and PGE2 by LPS-stimulated monocytes can be blocked by inhibiting ERK phosphorylation (Scherle et al., 1998). […] U937.12 cells were exposed to 200 ng/ml LPS in the presence of 1 μM U0126 (a specific inhibitor of ERK phosphorylation), 30 μM SP600125 (a specific inhibitor of Jnk kinases) or 10 μM SB203580 (a specific inhibitor of the p38 kinases). Control cultures were not exposed to LPS, or exposed to LPS but no inhibitors.
# [3] = system: 3134 mouse fibroblasts; test: HMGB1-GFP relocation to the cytoplasm in fibroblasts after TSA; assay type: cell-based; details: 10 ng/ml TSA for 3 hours
# Description: (§1) Fibroblasts and HeLa cells were cultured in Dulbecco's modified Eagle's medium (DMEM) supplemented with 10% fetal bovine serum (FBS, from Gibco), 100 IU/ml of penicillin and 100 μg/ml streptomycin, in 5% CO2 humidified atmosphere. HeLa cells and 3134 mouse fibroblasts were transfected by calcium phosphate co-precipitation. To express fluorescent proteins, 3×10^5 cells were plated in 6 cm dishes and were transiently transfected with 8 μg of the appropriate plasmid. Cells were observed 36 hours after transfection. The average amount of HMGB1-GFP in the cell population was between 1 and 3% of HMGB1 (as measured by immunoblotting with anti-HMGB1 antibodies). About 24 hours after transfection, 3134 fibroblasts were treated for 3 hours with 10 ng/ml trichostatin A (TSA, Sigma) before fixing and imaging. Subclone 12[−] of U937 promoyelocitic cells, kindly provided by M. Alfano and G. Poli (HSR, Milano), was grown in RPMI medium (Gibco) supplemented with 10% FCS, L-glutamine, 100 U/ml penicillin 100 μg/ml streptomycin, exposed for 3 days to 0.1 μM vitamin D3 (Roche) to promote CD14 expression, and stimulated with 100 ng/ml LPS (Sigma catalogue #L4391) or with 10 ng/ml TSA for 3 hours. For the experiments with kinase inhibitors, cells were exposed to 1 μM U0126, 10 μM SB203580 or 30 μM SP600125 (all from Calbiochem) at the same time as LPS, and lasting for 3 hours. […]
# [4] = system: U937.12 cells; test: HMGB1 relocation in U937.12 cells treated with TSA without LPS (immunofluorescence); assay type: cell-based; details: 10 ng/ml TSA for 3 hours, no LPS
# Description: as §1
# [5] = system: human monocytes; test: HMGB1 translocation to cytoplasmic vesicles in LPS-activated primary monocytes; assay type: cell-based; details: cycloheximide; time scale about 16-20 hours
# Description: as §1, with “The average amount of HMGB1-GFP in the cell population was between 1 and 3% of HMGB1 (as measured by immunoblotting with anti-HMGB1 antibodies).” left out
# [6] = target: CRM1 exportin (Homo sapiens, UniProt O14980); test: Pull down assay with labeled CRM1; details: 0.4 μM (400 nM) leptomycin B in the binding buffer
# Source text: Labeled CRM1 protein was mixed with beads bearing GST-NS2 immobilized onto Glutathione Sepharose or BSA, tailless HMGB1 (boxA+B) or individual boxes covalently linked to Sepharose. Aliquots representing the input material (In), the fourth wash (W4), the material remaining bound to beads after 5 washes (bound, B), and the unbound material (output, O) were electrophoresed and autoradiographed.
# CRM1 protein was in vitro transcribed-translated with the TnT Coupled Reticulocyte Lysate System (Promega) following the manifacturer's protocol, using pSGCRM1 plasmid as template. Seven μl of freshly made [^35S]-Met labeled CRM1 were incubated in 15 μl RAN Buffer (50 mM Tris-HCl pH 7.5, 200 mM NaCl, 2 mM MgCl2, 10% glycerol), 5 μl of 6×CRM1 buffer (20 mM HEPES-KOH pH 7.5, 80 mM CH3COOK, 4 mM Mg (CH3COO)2, 250 mM sucrose, 2.5 mM DTT), 1 mg/ml BSA, 400 nM Leptomycin B where indicated, and approximately 10 μl of beads bearing immobilized GST-NS2, BSA, recombinant tailless HMGB1 (HMGB1ΔC, Muller et al., 2001b), boxA, or boxB. GST-NS2 was coupled to Gluthatione Sepharose (Amersham), the other proteins were covalently cross-linked to Activated Sepharose-CH (Amersham). The incubation was for one hour at 4° C. on a rotating wheel. The beads were pelleted by centrifugation, supernatants were dried in Savant. […]
# [7] = system: HMGB1 transfer between human and mouse nuclei; test: Heterokaryon assay: HMGB1 transfer from human to mouse nuclei; assay type: cell-based; details: for HMGB1 transfer between human and mouse nuclei in heterokaryons: 150 nM leptomycin B, 4 hours at 37° C. with cycloheximide
# Source text: (A) Heterokaryons were formed by fusing HMGB1-expressing HeLa cells (human) and Hmgb1−/− mouse embryonic fibroblasts. Human cytokeratin and HMGB1 were stained red and green, respectively, with specific antibodies; nuclei were stained blue with DAPI (or Hoechst). Cells with human cytokeratin staining and two nuclei, one of which with bright DAPI-positive heterochromatic spots characteristic of mouse cells, were considered heterokaryons.
# Heterokaryons were produced and scored as in panel A; 150 heterokaryons were evaluated for HMGB1 transfer into recipient mouse nuclei for each of the 2 classes (leptomycin and control). The 50% level is equivalent to complete equilibration.
# HeLa cells were plated on glass coverslips in a 6-well dish (100 000 cells/dish). After 16 hours, 200 000 Hmgb1−/− mouse fibroblasts were plated on the same coverslips. Following a 3-hour incubation in the presence of 100 μg/ml cycloheximide, the cells were washed with PBS and treated with 100 μl of prewarmed 50% PEG-6000 in PBS for 1 min. After 3 washes with PBS, the cells were incubated with DMEM containing 100 μg/ml cycloheximide for 4 hours, and then fixed with 4% paraformaldehyde. Immunofluorescence was performed using anti-human cytokeratin (Santa Cruz) and anti-HMGB1 antibodies, and chromatin was visualized by DAPI staining. When indicated, 150 nM leptomycin B (a kind gift of Barbara Wolff, Novartis, Vienna) was added to the medium together with cycloheximide.
# Chain of CRM1 exportin (O14980 whole entry): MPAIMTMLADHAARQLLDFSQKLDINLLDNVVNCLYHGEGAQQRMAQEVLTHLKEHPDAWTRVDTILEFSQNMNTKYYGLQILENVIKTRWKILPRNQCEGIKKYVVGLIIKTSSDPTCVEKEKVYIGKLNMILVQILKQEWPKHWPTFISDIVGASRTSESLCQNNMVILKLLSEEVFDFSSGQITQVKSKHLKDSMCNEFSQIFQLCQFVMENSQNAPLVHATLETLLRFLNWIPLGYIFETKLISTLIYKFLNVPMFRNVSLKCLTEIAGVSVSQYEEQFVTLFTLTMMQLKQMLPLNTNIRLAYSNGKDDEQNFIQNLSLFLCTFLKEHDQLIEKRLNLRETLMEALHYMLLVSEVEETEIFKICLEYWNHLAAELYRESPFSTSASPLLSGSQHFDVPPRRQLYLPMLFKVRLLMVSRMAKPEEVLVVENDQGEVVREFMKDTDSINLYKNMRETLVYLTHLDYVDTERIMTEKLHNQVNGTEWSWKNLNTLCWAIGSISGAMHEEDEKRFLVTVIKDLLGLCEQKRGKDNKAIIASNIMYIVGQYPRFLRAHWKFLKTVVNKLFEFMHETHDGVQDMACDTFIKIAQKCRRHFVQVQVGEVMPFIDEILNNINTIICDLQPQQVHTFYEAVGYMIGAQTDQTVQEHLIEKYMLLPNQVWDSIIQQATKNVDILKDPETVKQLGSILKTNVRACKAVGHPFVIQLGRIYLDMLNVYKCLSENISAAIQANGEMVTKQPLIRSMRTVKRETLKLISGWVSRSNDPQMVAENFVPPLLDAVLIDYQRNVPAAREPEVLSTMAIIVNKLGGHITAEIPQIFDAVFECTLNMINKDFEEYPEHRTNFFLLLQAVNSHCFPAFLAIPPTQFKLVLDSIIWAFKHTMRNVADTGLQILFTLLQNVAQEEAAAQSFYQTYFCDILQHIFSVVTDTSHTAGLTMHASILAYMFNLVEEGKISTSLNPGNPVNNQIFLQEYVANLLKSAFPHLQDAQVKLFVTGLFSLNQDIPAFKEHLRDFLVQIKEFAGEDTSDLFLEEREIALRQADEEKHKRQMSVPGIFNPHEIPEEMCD
smiles,measurement,setting,value
C[C@@H]1NC(=O)[C@H]2CCCN2C(=O)[C@H](CCCCCC(=O)[C@@H]2CO2)NC(=O)[C@@H](C)NC1=O [HC-toxin],hyperacetylation of HMGB1,[1],hyperacetylation could be obtained
C[S+]([O-])c1ccc(-c2nc(-c3ccncc3)c(-c3ccc(F)cc3)[nH]2)cc1 (centres unmarked) [SB203580],HMGB1 relocation to vesicles after LPS,"[2]; 10 μM SB203580 together with LPS, 3 hours",has no effect; also recorded: substantial
"CC(/C=C/C(=O)NO)=C\[C@@H](C)C(=O)c1ccc(N(C)C)cc1 [TSA, trichostatin A]",HMGB1 isoform spots on 2D gel (hyperacetylation),"[1]; 3T3 cells, 10 ng/ml TSA, 6 hours, control 2 spots",several HMGB1 spots appeared
same,hyperacetylation of HMGB1,[1],hyperacetylation could be obtained
same,relocation of HMGB1-GFP to the cytoplasm,[3],causes a significant relocation of HMGB1-GFP to the cytoplasm; also recorded: sufficient to relocate a significant amount of HMGB1 to the cytoplasm
same,cytoplasmic expansion,[4],do not show cytoplasmic expansion
same,relocation of HMGB1 to cytoplasmic vesicles,[4],a fraction of HMGB1 is relocalized to cytoplasmic vesicles; also recorded: a fraction of HMGB1 started to shift to cytoplasmic vesicles
N#CC(=C(/N)Sc1ccccc1N)/C(C#N)=C(\N)Sc1ccccc1N [U0126],HMGB1 relocation to vesicles after LPS,[2],blocks it completely; also recorded: inhibition of HMGB1 translocation; also recorded: almost completely blocked
same,HMGB1 translocation after LPS stimulation after removal of the inhibitor,[2],restored
C[C@@H]1C[C@@H]([C@H](O)CC2CC(=O)NC(=O)C2)C(=O)[C@@H](C)C1 [cycloheximide],HMGB1 translocation after LPS,[2]; 10 μM cycloheximide starting 20 minutes prior to LPS addition,does not block HMGB1 translocation
same,HMGB1 translocation to vesicles when LPS is added,[2]; 10 μg/ml cycloheximide,still translocate HMGB1 to vesicles
same,HMGB1 translocation to cytoplasmic vesicles after LPS,[5],not inhibited
CCC(=C/[C@H](C)C/C=C/C(C)=C/[C@@H](C)C(=O)[C@@H](C)[C@H](O)[C@@H](C)C/C(C)=C/C(=O)O)/C=C/[C@@H]1OC(=O)C=C[C@@H]1C [leptomycin B],binding of labeled CRM1 to GST-NS2 and the HMG boxes (BoxA+B),[6],did not bind
same,binding of labeled CRM1 to GST-NS2 and the HMG boxes (BoxA+B),[6]; listed as leptomicin B,prevents binding of CRM1
same,HMGB1 transfer between human and mouse nuclei in heterokaryons,[7]; listed as Leptomycin B,"substantially reduces, but does not abolish"
same,HMGB1 transfer between human and mouse nuclei in heterokaryons,[7]; listed as leptomycin,strongly reduced
same,HMGB1 migrated to the mouse nucleus,"[7]; vast majority of leptomycin-treated heterokaryons, after 4 hours, 50% level = complete equilibration",less than 5%
same,HMGB1 relocation to vesicles after LPS,"[2]; 150 nM leptomycin together with LPS, 3 hours",partially blocked
same,HMGB1 relocation to vesicles after LPS,"[2]; 150 nM leptomycin together with LPS, 3 hours, listed as leptomycin",blocks HMGB1 relocation almost completely
CCCC(=O)[O-].[Na+] [sodium butyrate],hyperacetylation of HMGB1,[1],hyperacetylation could be obtained
